Measurements published in EP0548931A1, “Material for controlling pests” (SUMITOMO CHEMICAL COMPANY, LIMITED, priority 1991, dated 1993).

Legend:
sweetpotato whitefly [1] = test: Test Example 9: yellow Kent paper (Production Example 8) in net cage, hatching inhibition; type: in vivo, Bemisia tabaci; settings: yellow Kent paper 15 cm x 15 cm, 1 g/m², Solvesso 200; eggs laid on kidney bean
Method: Ten parts of the insect growth regulator is dissolved in 90 parts of a mineral oil. 0.225 Gram of the resulting solution is absorbed in a square yellow Kent paper having a side of 15 cm to obtain a material for controlling pests containing 1 g/m² of the active ingredient. A material for controlling pests containing pyriproxyfen (insect growth regulator) and Solvesso 200 (mineral oil) prepared according to Production Example 8 was formed into a size of 15 cm x 15 cm. It was set on one wall surface of a nylon net cage of 30 cm x 30 cm x 30 cm in size. About 100 adults of sweetpotato whitefly were released in the cage together with kidney bean on which the adults had been parasitized. One day after release of the adults, a potted kidney bean having no adults parasitized thereon was set in the cage for oviposition. Among the eggs laid on the potted kidney bean until the next day, the number of untached eggs was counted.

sweetpotato whitefly [2] = test: Test Example 5: gravure-printed yellow Kent paper (Production Example 4) in net room with cabbages, count of larvae; type: in vivo, Bemisia tabaci; settings: after 1 month; larvae parasitized on five randomly selected cabbages; yellow Kent paper 10 cm x 2 m, 5 g/m²; 800 adults released
Method: Five parts of the insect growth regulator is dissolved in 65 parts of a vegetable oil, and then 20 parts of a mineral oil and 10 parts of a surface active agent are added thereto and mixed. The resulting solution is applied to a roll of yellow Kent paper of 50 cm in width and 2,000 m in length by gravure printing to obtain a material for controlling pests containing 5 g/m² of the active ingredient. […] A material for controlling pests prepared according to Production Example 4 with pyriproxyfen (insect growth regulator), a cotton seed oil (vegetable oil), tetradecane (mineral oil) and Span 85® (surface active agent produced by ICI Americas Inc.) was formed into a size of 10 cm x 2 m. It was set at a height of 30 cm above the floor surface between the rows of cabbages. Eight hundred adults of sweetpotato whitefly were released in the net room. After 1 month, the number of larvae parasitized on five randomly selected cabbages was counted.

sweetpotato whitefly [3] = test: Test Example 8: yellow Kent paper (Production Example 7) in net cage, hatching inhibition; type: in vivo, Bemisia tabaci; settings: yellow Kent paper 15 cm x 15 cm, 0.01 g/m², cotton seed oil; eggs laid on kidney bean
Method: 0.01 Part of the insect growth regulator is dissolved in 99.99 parts of a vegetable oil. The resulting solution is applied to a roll of yellow Kent paper of 50 cm in width and 2,000 m in length by gravure printing to obtain material for controlling pests containing 0.01 g/m² of the active ingredient. A material for controlling pests containing pyriproxyfen (insect growth regulator) and a cotton seed oil (vegetable oil) prepared according to Production Example 7 was formed into a size of 15 cm x 15 cm. It was set on one wall surface of a nylon net cage of 30 cm x 30 cm x 30 cm in size. About 100 adults of sweetpotato whitefly were released in the cage together with kidney bean on which the adults had been parasitized. One day after release of the adults, a potted kidney bean having no adults parasitized thereon was set in the cage for oviposition. Among the eggs laid on the potted kidney bean until the next day, the number of unhatched eggs was counted.

Thrips palmi = test: Test Example 12: blue polyethylene sheet (Production Example 10) in glass vessel with cucumber seedlings, count of adults; type: in vivo; settings: 28° ±1°C
Text: The same procedure as in Production Example 9 is repeated except that a colored master batch for blue coloration (SPEM 510 produced by Sumika Color Co.; pigment content: 12 wt.%) replaces the colored master batch for yellow coloration. Thus, a sheet-form material for controlling pests is obtained.
Soil was placed on the bottom of a glass vessel of 70 cm x 35 cm x 35 cm in size. Three cucumber seedings, on which Thrips palmi had been parasitized, were planted at the central part of the glass vessel. After three days, the material for controlling pests prepared according to Production Example 10 was formed into a size of 15 cm x 15 cm and set at a height of 5 cm above the ground. On the other hand, the same test was carried out by setting a blue film containing no insect growth regulator, a control, in the same manner as in setting the above material for controlling pests.
On the predetermined day, the number of Thrips palmi adults parasitized on the cucumbers was counted. The tests were carried out in a room kept at 28° ±1°C.

greenhouse whiteflies [4] = test: Test Example 10: yellow polyethylene sheet (Production Example 9) set beside tomato, count of adults; type: in vivo, Trialeurodes vaporariorum
Method: Ninety-eight parts by weight of a polyethylene resin (Sumikathene®; a registered trade mark of Sumitomo Chemical Co., Ltd.), 1 part by weight of pyriproxyfen, a juvenile hormone-like compound, and 1 part by weight of a polyethylene colored master batch for yellow coloration (SPEM 305 produced by Sumika Color Co., pigment content: 12 wt.%) are kneaded with a pressure kneader and then pelletized. The resulting pellet is extruded through an extruder equipped with a T-dies at 160° to 180°C to obtain a sheet-form material for controlling pests of 1 mm in thickness. A sheet-like material for controlling pests prepared according to Production Example 9 was formed into a size of 15 cm x 15 cm. It was set at the same height as that of a container (80 cm x 112 cm x 45 cm) in which tomato having greenhouse whiteflies parasitized thereon had been planted. On the other hand, a yellow film containing no insect growth regulator was set as a control in the same manner as in setting the above material for controlling pests. On the predetermined day, the number of greenhouse whitefly adults parasitized on the tomato was counted.

greenhouse whiteflies [5] = test: Test Example 1: yellow cloth material (Production Example 2) set beside tomato, count of adults; type: in vivo, Trialeurodes vaporariorum
Method: 0.4 Part of the insect growth regulator is dissolved in 40 parts of acetone and further 0.8 part of rape seed oil is added thereto. Thirty-one milliliters of the resulting solution is absorbed in a yellow cloth of 21 cm x 92 cm in size. Acetone is then vaporized to obtain a material for controlling pests containing 0.16 mg/cm² of the active ingredient. A material for controlling pests with pyriproxyfen as insect growth regulator was prepared according to Production Example 2. It was set at the same height as that of a container (80 cm x 112 cm x 45 cm) in which tomato having greenhouse whiteflies parasitized thereon had been planted. On the other hand, a yellow cloth containing no insect growth regulator was set as a control at a distance of about 8 m. On the predetermined day, the number of greenhouse whitefly adults parasitized on the tomato was counted.

SMILES: CC(COc1ccc(Oc2ccccc2)cc1)Oc1ccccn1 (stereo not drawn) [pyriproxyfen, 4-phenoxyphenyl 2-(2-pyridyloxy)propyl ether]
- Hatching inhibitory rate (%) (sweetpotato whitefly [1]): 98.2%
- Number of larvae (sweetpotato whitefly [2]): 192
- Hatching inhibitory rate (%) (sweetpotato whitefly [3]): 100%
- number of Thrips palmi adults parasitized on the cucumbers (Thrips palmi; 0 days elapsed after setting, blue polyethylene sheet 15 cm x 15 cm): 3
- number of Thrips palmi adults parasitized on the cucumbers (Thrips palmi; 7 days elapsed after setting, blue polyethylene sheet): 4
- number of Thrips palmi adults parasitized on the cucumbers (Thrips palmi; 14 days elapsed after setting, blue polyethylene sheet): 3
- number of Thrips palmi adults parasitized on the cucumbers (Thrips palmi; 21 days elapsed after setting, blue polyethylene sheet): 2
- number of greenhouse whitefly adults parasitized on the tomato (mean value per cup) (greenhouse whiteflies [4]; 0 days elapsed after setting, yellow polyethylene sheet 1 mm, 1 part by weight pyriproxyfen, 15 cm x 15 cm): 105
- number of greenhouse whitefly adults parasitized on the tomato (mean value per cup) (greenhouse whiteflies [4]; 7 days elapsed after setting, yellow polyethylene sheet): 78
- number of greenhouse whitefly adults parasitized on the tomato (mean value per cup) (greenhouse whiteflies [4]; 14 days elapsed after setting, yellow polyethylene sheet): 75
- number of greenhouse whitefly adults parasitized on the tomato (mean value per cup) (greenhouse whiteflies [4]; 18 days elapsed after setting, yellow polyethylene sheet): 50
- number of greenhouse whitefly adults parasitized on the tomato (mean value per cup) (greenhouse whiteflies [4]; 28 days elapsed after setting, yellow polyethylene sheet): 20
- number of greenhouse whitefly adults parasitized on the tomato (mean value per cup) (greenhouse whiteflies [4]; 35 days elapsed after setting, yellow polyethylene sheet): 10
- number of greenhouse whitefly adults parasitized on the tomato (mean value per cup) (greenhouse whiteflies [4]; 42 days elapsed after setting, yellow polyethylene sheet): 3
- number of greenhouse whitefly adults parasitized on the tomato (mean value per cup) (greenhouse whiteflies [5]; 0 days elapsed after setting, 0.16 mg/cm² active ingredient, rape seed oil): 102
- number of greenhouse whitefly adults parasitized on the tomato (mean value per cup) (greenhouse whiteflies [5]; 7 days elapsed after setting, 0.16 mg/cm²): 82
- number of greenhouse whitefly adults parasitized on the tomato (mean value per cup) (greenhouse whiteflies [5]; 14 days elapsed after setting, 0.16 mg/cm²): 82
- number of greenhouse whitefly adults parasitized on the tomato (mean value per cup) (greenhouse whiteflies [5]; 18 days elapsed after setting, 0.16 mg/cm²): 53
- number of greenhouse whitefly adults parasitized on the tomato (mean value per cup) (greenhouse whiteflies [5]; 28 days elapsed after setting, 0.16 mg/cm²): 18
- number of greenhouse whitefly adults parasitized on the tomato (mean value per cup) (greenhouse whiteflies [5]; 35 days elapsed after setting, 0.16 mg/cm²): 12
- number of greenhouse whitefly adults parasitized on the tomato (mean value per cup) (greenhouse whiteflies [5]; 42 days elapsed after setting, 0.16 mg/cm²): 5
